Results from ChEMBL document CHEMBL4420076, “Amylin and calcitonin receptor agonist” (2017).
Peptide text beside a SMILES is read from it. * marks the point of attachment. C18 diacid = O=C(O)CCCCCCCCCCCCCCCCC(=O)*

Columns and labels:
[1] = Dose normalized AUC in LYD pig at 1.6 mM, sc co-dosed with 1.6 mM liraglutide by LC-MS analysis; format: ADME, organism-based, Sus scrofa; conditions: in vivo, 1600 µM
[2] = target: T1, Amylin receptor AMY3; CALCR/RAMP3 (Homo sapiens, UniProt O60896+P30988); experiment: Displacement of [125I]-labeled rat amylin from human amylin receptor expressed in BHK tkts13 whole cells co-expressing RAMP3 incubated for 60 mins by scintillation proximity assay; format: cell-based
T1 sequence (P30988 whole entry): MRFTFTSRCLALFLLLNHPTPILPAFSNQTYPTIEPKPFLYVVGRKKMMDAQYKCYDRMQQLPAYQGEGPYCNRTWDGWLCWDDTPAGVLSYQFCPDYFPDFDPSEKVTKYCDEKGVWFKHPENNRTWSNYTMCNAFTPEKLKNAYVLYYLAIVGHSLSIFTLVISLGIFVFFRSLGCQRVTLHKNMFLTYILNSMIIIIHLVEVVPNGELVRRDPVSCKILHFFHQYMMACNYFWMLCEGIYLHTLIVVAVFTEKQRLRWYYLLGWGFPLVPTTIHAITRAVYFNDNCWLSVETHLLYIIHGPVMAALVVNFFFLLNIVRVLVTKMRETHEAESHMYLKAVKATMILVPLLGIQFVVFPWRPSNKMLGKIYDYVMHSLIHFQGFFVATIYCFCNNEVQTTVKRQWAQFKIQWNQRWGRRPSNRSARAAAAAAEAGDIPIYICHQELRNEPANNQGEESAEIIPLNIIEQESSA
T1 sequence (O60896 whole entry): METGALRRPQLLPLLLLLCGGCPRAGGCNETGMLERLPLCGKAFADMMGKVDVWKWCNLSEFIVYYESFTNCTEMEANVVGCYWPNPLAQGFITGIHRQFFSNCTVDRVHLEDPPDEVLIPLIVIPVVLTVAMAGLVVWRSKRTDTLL

[3] = Half life in LYD pig at 1.6 mM, sc co-formulated with 1.6 mM liraglutide by LC-MS analysis; format: ADME, organism-based, Sus scrofa; conditions: in vivo
[4] = Solubility in 100 mM glycylglycine buffer at pH 4.0 incubated for 18 hrs by UPLC analysis; format: physicochemical
Rattus norvegicus [5] = experiment: (§1) Reduction in body weight in Sprague-Dawley rat model of diet-induced obesity assessed as relative body weight at 3.7 ug/kg, sc dosed dosed once daily during 0 to 28 days and measured on day 28 relative to initial body weight (reference value: 99.8 +.- 1.1%); format: functional; parameters: scale not given: the % may be the effect or the level left
[6] = target: T1, Amylin receptor AMY3; CALCR/RAMP3; experiment: Agonist activity at human amylin receptor expressed in BHK570 cells co-expressing RAMP3 assessed as increase in intracellular cAMP concentration incubated for 3 hrs in absence of albumin by CRE luciferase reporter gene assay; format: functional, cell-based
[7] = Dose normalized AUC in LYD pig at 1.6 mM, sc co-formulated with 1.6 mM liraglutide by LC-MS analysis; format: ADME, organism-based, Sus scrofa; conditions: in vivo, 1600 µM
Rattus norvegicus [8] = experiment: Reduction in food intake in Sprague-Dawley rat at 3 nmol/kg measured 24 to 48 hrs post dose relative to control; format: functional; parameters: scale not given: the % may be the effect or the level left
[9] = Solubility in 100 mM bistrispropane buffer at pH 6.0 incubated for 18 hrs by UPLC analysis; format: physicochemical
[10] = Solubility in 100 mM bistrispropane buffer at pH 6.5 incubated for 18 hrs by UPLC analysis; format: physicochemical
Rattus norvegicus [11] = experiment: Reduction in food intake in Sprague-Dawley rat at 3 nmol/kg measured 0 to 24 hrs post dose relative to control; format: functional; parameters: scale not given: the % may be the effect or the level left
[12] = Solubility in 100 mM bistrispropane buffer at pH 8.0 incubated for 18 hrs by UPLC analysis; format: physicochemical
[13] = Half life in LYD pig at 1.6 mM, sc co-dosed with 1.6 mM liraglutide by LC-MS analysis; format: ADME, organism-based, Sus scrofa; conditions: in vivo
Rattus norvegicus [14] = experiment: as §1, with “daily and co-treated with 0.1 mg/kg, sc liraglutide” for “daily”, “15” for “28”, “98.8 +/- 0.8%)” for “99.8 +.- 1.1%)”; format: functional; parameters: scale not given: the % may be the effect or the level left
[15] = Solubility in 100 mM bistrispropane buffer at pH 7.5 incubated for 18 hrs by UPLC analysis; format: physicochemical
[16] = Solubility in 100 mM glycylglycine buffer at pH 5.0 incubated for 18 hrs by UPLC analysis; format: physicochemical
Calcitonin receptor = target: T2, Calcitonin receptor (Homo sapiens, UniProt P30988); experiment: Agonist activity at human calcitonin receptor expressed in BHK570 cells assessed as increase in intracellular cAMP concentration incubated for 3 hrs in absence of albumin by CRE luciferase reporter gene assay; format: functional, cell-based
T2 sequence (P30988 whole entry): T1 sequence (P30988 whole entry)

Rattus norvegicus [17] = experiment: as §1, with “daily and co-treated with 0.1 mg/kg, sc liraglutide” for “daily”, “98.8 +/- 0.8%)” for “99.8 +.- 1.1%)”; format: functional; parameters: scale not given: the % may be the effect or the level left
[18] = Solubility in 100 mM glycylglycine buffer at pH 3.0 incubated for 18 hrs by UPLC analysis; format: physicochemical
[19] = Solubility in 100 mM bistrispropane buffer at pH 7.0 incubated for 18 hrs by UPLC analysis; format: physicochemical
Rattus norvegicus [20] = experiment: Reduction in body weight in Sprague-Dawley rat model of diet-induced obesity assessed as relative body weight at 3.7 ug/kg, sc dosed dosed once daily during 0 to 15 days and measured on day 15 relative to initial body weight (reference value: 98.8 +/- 0.8%); format: functional; parameters: scale not given: the % may be the effect or the level left

For CC(C)C[C@H](NC(=O)[C@H](C)NC(=O)[C@H](C)NC(=O)[C@@H](NC(=O)[C@H](CO)NC(=O)[C@H](CC(C)C)NC(=O)[C@H](CCC(=O)O)NC(=O)[C@H](CO)NC(=O)[C@H](C)NC(=O)[C@H](CCC(=O)O)NC(=O)CCCCCCCCCCCCCCCCC(=O)O)[C@@H](C)O)C(=O)NCC(=O)N[C@@H](CCCNC(=N)N)C(=O)N[C@@H](CC(C)C)C(=O)N[C@@H](CO)C(=O)N[C@@H](C)C(=O)N[C@@H](CCC(=O)O)C(=O)N[C@@H](CC(C)C)C(=O)N[C@@H](Cc1cnc[nH]1)C(=O)N[C@@H](CCC(=O)O)C(=O)N[C@@H](CC(C)C)C(=O)N[C@@H](C)C(=O)N[C@H](C(=O)N[C@@H](CC(C)C)C(=O)N1CCC[C@H]1C(=O)N[C@@H](CCCNC(=N)N)C(=O)N[C@H](C(=O)N[C@@H](CCC(=O)O)C(=O)N[C@H](C(=O)NCC(=O)N1CCC[C@H]1C(=O)N[C@@H](CCC(=O)O)C(=O)N[C@@H](CO)C(=O)N1CCC[C@H]1C(N)=O)[C@@H](C)O)[C@@H](C)O)[C@@H](C)O ({C18 diacid}-EASELSTAALGRLSAELHELATLPRTETGPESP-NH2), the AUC/dose [1] was 712 kg·h/L, the IC50 [2] was 902 pM and the half-life at 1600 µM [3] was 67 h. The solubility at 18 h [4] was ≥ 200 µM, the Activity (Rattus norvegicus [5]) was 88.9% and the EC50 [6] was 8 pM. The AUC/dose [7] was 732 kg·h/L, the Activity (Rattus norvegicus [8]) was 60.67% and the solubility at 18 h [9] was ≥ 200 µM. For the same molecule, the solubility at 18 h [10] was ≥ 200 µM, the Activity (Rattus norvegicus [11]) was 79% and the solubility at 18 h [12] was ≥ 200 µM. The half-life at 1600 µM [13] was 67 h, the Activity (Rattus norvegicus [14]) was 93.4% and the solubility at 18 h [15] was ≥ 200 µM. For the same molecule, the solubility at 18 h [16] was ≥ 200 µM, the EC50 (Calcitonin receptor) was 5 pM and the Activity (Rattus norvegicus [17]) was 83.2%. For the same molecule, the solubility at 18 h [18] was ≥ 200 µM, the solubility at 18 h [19] was ≥ 200 µM and the Activity (Rattus norvegicus [20]) was 90.6%.
